# Experimental data published in ChEMBL document CHEMBL6074717, “Advancing mitochondrial therapeutics: Synthesis and pharmacological evaluation of pyrazole-based inhibitors targeting the mitochondrial pyruvate carrier” (Eur J Med Chem, 2025).
# Active and inactive are the calls of the source. The calls are words filed in the database; no cut-off is given here.
# Columns and labels:
# [1] = Inhibition of mitochondrial pyruvate carrier in C57BL/6J mouse cardiac mitochondria assessed as inhibition of pyruvate/malate-induced mitochondrial respiration by steady-state ADP coupled assay; parameters: species or system Heart
# [2] = target: T1, Peroxisome proliferator-activated receptor gamma (Homo sapiens, UniProt P37231); test: Agonist activity at Gal4-fused PPAR-gamma (unknown origin) transfected in mouse C2C12 cells assessed as decrease in luciferase activity at 0.2 to 20 uM measured after 24 hrs by Dual-Glo Luciferase assay; format: toxicity, cell-based; conditions: c2c12, 24 h, dose 0.2-20 µM
# T1 sequence (P37231 whole entry): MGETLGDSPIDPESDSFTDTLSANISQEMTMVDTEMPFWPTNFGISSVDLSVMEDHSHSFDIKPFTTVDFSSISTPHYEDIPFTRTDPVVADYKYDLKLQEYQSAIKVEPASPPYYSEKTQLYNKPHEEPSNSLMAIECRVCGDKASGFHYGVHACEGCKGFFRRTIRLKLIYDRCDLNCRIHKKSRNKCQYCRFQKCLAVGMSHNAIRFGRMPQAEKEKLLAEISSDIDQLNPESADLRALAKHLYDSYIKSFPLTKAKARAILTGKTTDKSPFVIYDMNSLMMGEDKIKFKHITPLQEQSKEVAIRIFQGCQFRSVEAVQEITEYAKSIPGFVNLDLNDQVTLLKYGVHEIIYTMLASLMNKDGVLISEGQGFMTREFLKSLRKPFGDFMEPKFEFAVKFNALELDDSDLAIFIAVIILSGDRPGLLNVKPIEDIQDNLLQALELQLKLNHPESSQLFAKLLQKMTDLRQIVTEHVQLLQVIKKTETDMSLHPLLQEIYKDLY
# [3] = Kinetic solubility of the compound in PBS at pH 7.4 measured after 24 hrs by LC-MS/MS analysis; format: physicochemical; conditions: for solubility kinetic at 24 h: PBS, pH 7.4, read-out: Kinetic_solubility; for Kinetic_solubility: buffer, pH 7.4, 24 h
# [4] = Half life in human liver microsomes at 1 uM in presence of NADPH by LC-MS/MS analysis; format: ADME, Microsome
# [5] = Intrinsic clearance in human liver microsomes at 1 uM in presence of NADPH by LC-MS/MS analysis; format: ADME, Microsome
# LX-2 [6] = test: Inhibition of hepatic stellate cell activation in human LX-2 cells assessed as inhibition of TGF-beta-stimulated ACTA2 gene expression at 10 uM quantitative real-time PCR analysis; format: functional, cell-based
# [7] = target: T1, Peroxisome proliferator-activated receptor gamma; test: Agonist activity at Gal4-fused PPAR-gamma (unknown origin) transfected in mouse C2C12 cells assessed as decrease in luciferase activity at 10 uM measured after 24 hrs by Dual-Glo Luciferase assay; format: toxicity, cell-based; conditions: c2c12, 24 h
# LX-2 [8] = test: Inhibition of hepatic stellate cell activation in human LX-2 cells assessed as inhibition of TGF-beta-stimulated FN1 gene expression at 10 uM quantitative real-time PCR analysis; format: functional, cell-based
# LX-2 [9] = test: Inhibition of hepatic stellate cell activation in human LX-2 cells assessed as inhibition of TGF-beta-stimulated […] gene expression at 10 uM quantitative real-time PCR analysis; format: functional, cell-based
EC50 [1] [nM],Compound,other results
651,N#C/C(=C\c1c[nH]nc1-c1ccc(F)cc1)C(=O)O,
108,N#C/C(=C\c1c[nH]nc1-c1cccc(C(F)(F)F)c1)C(=O)O,Activity [2]: Not_active; solubility kinetic at 24 h [3]: ≥ 100 µM; t1/2 [4]: > 2 h; Intrinsic clearance [5]: 3 µL/min/mg
919,N#C/C(=C\c1c[nH]nc1-c1ccc(-c2ccccc2)cc1)C(=O)O,
4120,N#C/C(=C\c1c[nH]nc1-c1ccc([N+](=O)[O-])cc1)C(=O)O,
785,N#C/C(=C\c1c[nH]nc1-c1cccc(F)c1)C(=O)O,
516,N#C/C(=C\c1c[nH]nc1-c1ccccc1Cl)C(=O)O,
8710,CC(C)(C)OC(=O)/C(C#N)=C/c1c[nH]nc1-c1ccc(Cl)c(Cl)c1,
796,N#C/C(=C\c1c[nH]nc1-c1ccc(Cl)cc1)C(=O)O,
543,N#C/C(=C\c1c[nH]nc1-c1ccc(C(F)(F)F)cc1)C(=O)O,
550,Cc1cccc(-c2n[nH]cc2/C=C(\C#N)C(=O)O)c1,
12000,CC(C)(C)OC(=O)/C(C#N)=C/c1c[nH]nc1-c1cccc(C(F)(F)F)c1,Kinetic_solubility [3]: 24.4 µM; t1/2 [4]: > 2 h; Intrinsic clearance [5]: 2 µL/min/mg
273,N#C/C(=C\c1c[nH]nc1-c1cccc2ccccc12)C(=O)O,
3890,CCOC(=O)/C(C#N)=C/c1c[nH]nc1-c1ccc(Cl)c(Cl)c1,Kinetic_solubility [3]: 4.8 µM; t1/2 [4]: 0.03 h; Intrinsic clearance [5]: 377 µL/min/mg
659,COc1ccc(-c2n[nH]cc2/C=C(\C#N)C(=O)O)c(F)c1,
18300,CS(=O)(=O)c1ccc(-c2n[nH]cc2/C=C(\C#N)C(=O)O)cc1,
258,N#C/C(=C\c1c[nH]nc1-c1ccccc1C(F)(F)F)C(=O)O,
70,N#C/C(=C\c1c[nH]nc1-c1cc(Br)cc(Br)c1)C(=O)O,inhibition (LX-2 [6]): Active; Activity [2]: Not_active; Kinetic_solubility [3]: 22 µM; t1/2 [4]: 0.257 h; Intrinsic clearance [5]: 45 µL/min/mg
810,N#C/C(=C\c1c[nH]nc1-c1ccc(F)c([N+](=O)[O-])c1)C(=O)O,
444,N#C/C(=C\c1c[nH]nc1-c1cccc(Br)c1)C(=O)O,Kinetic_solubility [3]: 0.2 µM; t1/2 [4]: > 2 h; Intrinsic clearance [5]: 3 µL/min/mg
795,COc1ccc(-c2n[nH]cc2/C=C(\C#N)C(=O)O)cc1,
,CN(CCOc1ccc(CC2SC(=O)NC2=O)cc1)c1ccccn1 (stereo not given) [ROSIGLITAZONE],Activity [7]: Active
707,N#C/C(=C\c1cn(-c2ccccc2)nc1-c1cccc2ccccc12)C(=O)O,
447,CC(C)(C)c1ccc(-c2n[nH]cc2/C=C(\C#N)C(=O)O)cc1,
212,N#C/C(=C\c1c[nH]nc1-c1ccc2ccccc2c1)C(=O)O,inhibition (LX-2 [6]): Active; inhibition (LX-2 [8]): Active; inhibition (LX-2 [9]): Active; Activity [2]: Not_active; solubility kinetic at 24 h [3]: ≥ 100 µM; t1/2 [4]: 1.15 h; Intrinsic clearance [5]: 10 µL/min/mg

EC50 [1] [nM],Compound,other results
796,N#C/C(=C\c1c[nH]nc1-c1ccccc1)C(=O)O,
659,Cc1ccccc1-c1n[nH]cc1/C=C(\C#N)C(=O)O,
374,N#C/C(=C\c1c[nH]nc1-c1cccs1)C(=O)O,
1080,N#C/C(=C\c1c[nH]nc1-c1ccc(Cl)cc1Cl)C(=O)O,
552,N#C/C(=C\c1c[nH]nc1-c1cc2ccccc2s1)C(=O)O,
791,N#C/C(=C\c1c[nH]nc1-c1ccccc1F)C(=O)O,
435,N#C/C(=C\c1c[nH]nc1-c1ccc2c(c1)OCO2)C(=O)O,
927,COc1cccc(-c2n[nH]cc2/C=C(\C#N)C(=O)O)c1,
165,N#C/C(=C\c1c[nH]nc1-c1cc(C(F)(F)F)cc(C(F)(F)F)c1)C(=O)O,
568,COc1ccccc1-c1n[nH]cc1/C=C(\C#N)C(=O)O,
241,N#C/C(=C\c1cn(-c2ccccc2)c2ccccc12)C(=O)O,
614,CCc1ccc(-c2n[nH]cc2/C=C(\C#N)C(=O)O)cc1,
650,N#C/C(=C\c1c[nH]nc1-c1cccc(Cl)c1)C(=O)O,
568,COc1ccc(-c2n[nH]cc2/C=C(\C#N)C(=O)O)cc1F,
722,N#C/C(=C\c1cn(Cc2ccccc2)nc1-c1ccc(Cl)c(Cl)c1)C(=O)O,
1290,N#C/C(=C\c1cn(Cc2ccccc2)nc1-c1ccc2ccccc2c1)C(=O)O,
107,N#C/C(=C\c1c[nH]nc1-c1ccc(Cl)c(Cl)c1)C(=O)O,inhibition (LX-2 [6]): Active; inhibition (LX-2 [8]): Active; inhibition (LX-2 [9]): Active; Activity [2]: Not_active; solubility kinetic at 24 h [3]: ≥ 100 µM; t1/2 [4]: > 2 h; Intrinsic clearance [5]: 3 µL/min/mg
344,N#C/C(=C\c1c[nH]nc1-c1ccc(Br)cc1)C(=O)O,
7770,N#C/C(=C\c1c[nH]nc1-c1cccnc1)C(=O)O,
390,CCn1cc(/C=C(\C#N)C(=O)O)c(-c2ccc(Cl)c(Cl)c2)n1,
789,N#C/C(=C\c1cn(-c2ccccc2)nc1-c1ccc2ccccc2c1)C(=O)O,
808,COc1ccc(-c2n[nH]cc2/C=C(\C#N)C(=O)O)cc1OC,
504,N#C/C(=C\c1c[nH]nc1-c1cc(Cl)ccc1Cl)C(=O)O,
369,N#C/C(=C\c1cn(-c2ccccc2)nc1-c1ccc(Cl)c(Cl)c1)C(=O)O,
